{
  "source": "patent US6391826B1",
  "about": "“Optically active uracil compounds” (Sumitomo Chemical Company, Limited, priority 1998, dated 2002)",
  "assay_type_in_all_cases": "in vivo",
  "parameters_in_all_cases": "key: “0” means that there was no or little difference in the degree of germination or growth between the treated and the untreated tested plants at the time of examination; “5” means that the test plants died complete or their germination or growth was completely inhibited",
  "key": {"[1]": {"tested_on": "barnyardgrass (Echinochloa crus-gali)", "test": "Test Example 4: soil surface treatment on upland fields", "conditions": "examined after 25 days, index 0-5", "experimental": "(§1) Soil Surface Treatment on upland fields Plastic pots which have an area of (26.5×19)cm^2 and a depth of 7 cm were filled with upland soil, seeded with hemp sesbania (Sesbania exaltata), barnyardgrass (Echinochloa crus-gali) and johnsongrass (Sorghum halepense). Each of the test compounds was formulated into emulsifiable concentrates according to Formulation Example 2, which was diluted with a designated amount of water, and such was uniformly sprayed over the soil surface in the pots with a sprayer at a volume of 100 liters per hectare. After the application, the test were grown in a greenhouse for 25 days, and the herbicidal activity was examined."}, "[2]": {"tested_on": "hemp sesbania (Sesbania exaltata)", "test": "Test Example 4: soil surface treatment on upland fields", "conditions": "examined after 25 days, index 0-5", "experimental": "as §1"}, "[3]": {"tested_on": "johnsongrass (Sorghum halepense)", "test": "Test Example 4: soil surface treatment on upland fields", "conditions": "examined after 25 days, index 0-5", "experimental": "as §1"}, "[4]": {"tested_on": "johnsongrass (Sorghum halepense)", "test": "Test Example 5: soil incorporation treatment on upland fields", "conditions": "examined after 19 days, index 0-5", "text": "Soil Incorporation Treatment on Upland Fields Cylindrical plastic pots of 10 cm in diameter and a 10 cm in depth were filled with upland soil. The soil from the surface to 3 cm in depth was taken and mixed with the dilution which was given by diluting the emulsifiable concentrates of the test compounds, formulated according to Formulation Example 2, with water at a volume of 606 liters per hectare. Thereafter, the treated soil was put back to the pots, in which johnsongrass (Sorghum halepense) was sowed at 1.5 cm in depth. The test plants were grown in a greenhouse for 19 days, and the herbicidal activity was examined."}, "[5]": {"tested_on": "johnsongrass (Sorghum halepense)", "test": "Test Example 6: soil surface treatment on upland fields", "conditions": "examined after 25 days, index 0-5", "experimental": "Soil Surface Treatment on Upland Fields Plastic pots which have an area of (26.5×19)cm^2 and a depth of 7 cm were filled with upland soil, seeded with johnsongrass (Sorghum halepense). Each of the test compounds was formulated into emulsifiable concentrates according to Formulation Example 2, which was diluted with a designated amount of water, and such was uniformly sprayed over the soil surface in the pots with a sprayer at a volume of 1000 liters per hectare. After the application, the test plants were placed in a greenhouse for 25 days, and the herbicidal activity was examined."}, "[6]": {"tested_on": "johnsongrass (Sorghum halepense)", "test": "Test Example (Table 3): soil incorporation treatment on upland fields", "conditions": "examined after 19 days, index 0-5", "text": "Soil Incorporation Treatment on Upland Fields\nCylindrical plastic pots of 10 cm in diameter and a 10 cm in depth were filled with upland soil. The soil from the surface to 3 cm in depth was taken and mixed with the dilution which was given by diluting the emulsifiable concentrates of the test compounds, formulated according to Formulation Example 2, with water at a volume of 606 liters per hectare. Thereafter, the treated soil was put back to the pots, in which johnsongrass (Sorghum halepense) was sowed at 1.5 cm in depth. The test plants were grown in a greenhouse for 19 days, and the herbicidal activity was examined."}, "[7]": {"tested_on": "johnsongrass (Sorghum halepense)", "test": "Test Example 2: soil surface treatment on upland fields", "conditions": "examined after 25 days, index 0-5", "experimental": "Soil Surface Treatment on Upland Fields\n(§2) Plastic pots which have an area of (26.5×19)cm^2 and a depth of 7 cm were filled with upland soil, seeded with johnsongrass (Sorghum halepense). Each of the test compounds was formulated into emulsifiable concentrates according to Formulation Example 2, which was diluted with a designated amount of water, and such was uniformly sprayed over the soil surface in the pots with a sprayer at a volume of 1000 liters per hectare. After the application, the test plants were grown in a greenhouse for 25 days, and the herbicidal activity was examined."}, "[8]": {"tested_on": "common cocklebur (Xanthium strumarium)", "test": "Test Example 1: foliar treatment on upland fields", "conditions": "1 g/ha active ingredient; foliar spray on 21-day plants, 1% Agri-Dex; examined after 21 days; index 0-5", "experimental": "Foliar Treatment on Upland Fields\nas §2, with “with common cocklebur (Xanthium strumarium) and were given 21 days to grow in a greenhouse.” for “with johnsongrass (Sorghum halepense).”, “of water containing 1% Agri-Dex (adjuvant produced by Helena Chemical Company),” for “of water,”, “the foliage of” for “the soil surface in”, “the test plants” for “the pots”, “in the” for “in a”, “for 21” for “for 25”"}},
  "data": [
    {"smiles": "CCOC(=O)C(C)Oc1cc(-n2c(=O)cc(C(F)(F)F)n(C)c2=O)c(F)cc1Cl", "note": "(racemic) [Comparative Compound 2, ethyl (2RS)-2-[2-chloro-4-fluoro-5-[3-methyl-2,6-dioxo-4-(trifluoromethyl)-1,2,3,6-tetrahydropyrimidin-1-yl]phenoxy]propionate]", "values": [
      {"measurement": "Herbicidal Activity barnyard-grass", "setting": "[1]; 16 g/ha", "result": 0},
      {"measurement": "Herbicidal Activity barnyard-grass", "setting": "[1]; 32 g/ha", "result": 3},
      {"measurement": "Herbicidal Activity barnyard-grass", "setting": "[1]; 63 g/ha", "result": 3},
      {"measurement": "Herbicidal Activity barnyard-grass", "setting": "[1]; 125 g/ha", "result": 5},
      {"measurement": "Herbicidal Activity hemp sesbania", "setting": "[2]; 16 g/ha", "result": 0},
      {"measurement": "Herbicidal Activity hemp sesbania", "setting": "[2]; 32 g/ha", "result": 2},
      {"measurement": "Herbicidal Activity hemp sesbania", "setting": "[2]; 63 g/ha", "result": 3},
      {"measurement": "Herbicidal Activity hemp sesbania", "setting": "[2]; 125 g/ha", "result": 4},
      {"measurement": "Herbicidal Activity johnson-grass", "setting": "[3]; 16 g/ha", "result": 0},
      {"measurement": "Herbicidal Activity johnson-grass", "setting": "[3]; 32 g/ha", "result": 2},
      {"measurement": "Herbicidal Activity johnson-grass", "setting": "[3]; 63 g/ha", "result": 3},
      {"measurement": "Herbicidal Activity johnson-grass", "setting": "[3]; 125 g/ha", "result": 4},
      {"measurement": "Herbicidal Activity johnsongrass", "setting": "[4]; 20 g/ha", "result": 1},
      {"measurement": "Herbicidal Activity johnsongrass", "setting": "[4]; 40 g/ha", "result": 2},
      {"measurement": "Herbicidal Activity johnsongrass", "setting": "[4]; 80 g/ha", "result": 4}
    ]},
    {"smiles": "C=CCOC(=O)C(C)Oc1cc(-n2c(=O)cc(C(F)(F)F)n(C)c2=O)c(F)cc1Cl", "note": "(racemic) [Comparative Compound 3, allyl (2RS)-2-[2-chloro-4-fluoro-5-[3-methyl-2,6-dioxo-4-(trifluoromethyl)-1,2,3,6-tetrahydropyrimidin-1-yl]phenoxy]propionate, reference compound]", "values": [
      {"measurement": "Herbicidal Activity johnsongrass", "setting": "[5]; 16 g/ha", "result": 0},
      {"measurement": "Herbicidal Activity johnsongrass", "setting": "[5]; 32 g/ha", "result": 1},
      {"measurement": "Herbicidal Activity johnsongrass", "setting": "[5]; 63 g/ha", "result": 2}
    ]},
    {"smiles": "COC(=O)C(C)Oc1cc(-n2c(=O)cc(C(F)(F)F)n(C)c2=O)c(F)cc1Cl", "note": "(single isomer, unassigned) [Present Compound 6, methyl 2-[2-chloro-4-fluoro-5-[3-methyl-2,6-dioxo-4-(trifluoromethyl)-1,2,3,6-tetrahydropyrimidin-1-yl]phenoxy]propionate]", "values": [
      {"measurement": "Herbicidal Activity johnsongrass", "setting": "[6]; 20 g/ha", "result": 3},
      {"measurement": "Herbicidal Activity johnsongrass", "setting": "[6]; 40 g/ha", "result": 5},
      {"measurement": "Herbicidal Activity johnsongrass", "setting": "[6]; 80 g/ha", "result": 5},
      {"measurement": "Herbicidal Activity johnsongrass", "setting": "[7]; 16 g/ha", "result": 4},
      {"measurement": "Herbicidal Activity johnsongrass", "setting": "[7]; 32 g/ha", "result": 5},
      {"measurement": "Herbicidal Activity johnsongrass", "setting": "[7]; 63 g/ha", "result": 5}
    ]},
    {"smiles": "COC(=O)C(C)Oc1cc(-n2c(=O)cc(C(F)(F)F)n(C)c2=O)c(F)cc1Cl", "note": "(single isomer, unassigned) [Present Compound 7, methyl 2-[2-chloro-4-fluoro-5-[3-methyl-2,6-dioxo-4-(trifluoromethyl)-1,2,3,6-tetrahydropyrimidin-1-yl]phenoxy]propionate]", "values": [
      {"measurement": "Herbicidal Activity johnsongrass", "setting": "[6]; 20 g/ha", "result": 2},
      {"measurement": "Herbicidal Activity johnsongrass", "setting": "[6]; 40 g/ha", "result": 5},
      {"measurement": "Herbicidal Activity johnsongrass", "setting": "[6]; 80 g/ha", "result": 5},
      {"measurement": "Herbicidal Activity johnsongrass", "setting": "[7]; 16 g/ha", "result": 4},
      {"measurement": "Herbicidal Activity johnsongrass", "setting": "[7]; 32 g/ha", "result": 5},
      {"measurement": "Herbicidal Activity johnsongrass", "setting": "[7]; 63 g/ha", "result": 5}
    ]},
    {"smiles": "COC(=O)[C@H](C)Oc1cc(-n2c(=O)cc(C(F)(F)F)n(C)c2=O)c(F)cc1Cl", "note": "[Comparative Compound 1, methyl (2S)-2-[2-chloro-4-fluoro-5-[3-methyl-2,6-dioxo-4-(trifluoromethyl)-1,2,3,6-tetrahydropyrimidin-1-yl]phenoxy]propionate, reference compound]", "values": [
      {"measurement": "Herbicidal Activity Common Cocklebur", "setting": "[8]", "result": 0}
    ]},
    {"smiles": "COC(=O)C(C)Oc1cc(-n2c(=O)cc(C(F)(F)F)n(C)c2=O)c(F)cc1Cl", "note": "(stereo not shown) [Comparative Compound 4, methyl 2-[2-chloro-4-fluoro-5-[3-methyl-2,6-dioxo-4-(trifluoromethyl)-1,2,3,6-tetrahydropyrimidin-1-yl]phenoxy]propionate, reference compound]", "values": [
      {"measurement": "Herbicidal Activity johnsongrass", "setting": "[6]; 20 g/ha", "result": 0},
      {"measurement": "Herbicidal Activity johnsongrass", "setting": "[6]; 40 g/ha", "result": 2},
      {"measurement": "Herbicidal Activity johnsongrass", "setting": "[6]; 80 g/ha", "result": 4},
      {"measurement": "Herbicidal Activity johnsongrass", "setting": "[7]; 16 g/ha", "result": 1},
      {"measurement": "Herbicidal Activity johnsongrass", "setting": "[7]; 32 g/ha", "result": 2},
      {"measurement": "Herbicidal Activity johnsongrass", "setting": "[7]; 63 g/ha", "result": 4}
    ]},
    {"smiles": "CCOC(=O)[C@@H](C)Oc1cc(-n2c(=O)cc(C(F)(F)F)n(C)c2=O)c(F)cc1Cl", "note": "[Present Compound 2, ethyl (2R)-2-[2-chloro-4-fluoro-5-[3-methyl-2,6-dioxo-4-(trifluoromethyl)-1,2,3,6-tetrahydropyrimidin-1-yl]phenoxy]propionate]", "values": [
      {"measurement": "Herbicidal Activity barnyard-grass", "setting": "[1]; 16 g/ha", "result": 5},
      {"measurement": "Herbicidal Activity barnyard-grass", "setting": "[1]; 32 g/ha", "result": 5},
      {"measurement": "Herbicidal Activity barnyard-grass", "setting": "[1]; 63 g/ha", "result": 5},
      {"measurement": "Herbicidal Activity hemp sesbania", "setting": "[2]; 16 g/ha", "result": 2},
      {"measurement": "Herbicidal Activity hemp sesbania", "setting": "[2]; 32 g/ha", "result": 5},
      {"measurement": "Herbicidal Activity hemp sesbania", "setting": "[2]; 63 g/ha", "result": 5},
      {"measurement": "Herbicidal Activity johnson-grass", "setting": "[3]; 16 g/ha", "result": 3},
      {"measurement": "Herbicidal Activity johnson-grass", "setting": "[3]; 32 g/ha", "result": 5},
      {"measurement": "Herbicidal Activity johnson-grass", "setting": "[3]; 63 g/ha", "result": 5},
      {"measurement": "Herbicidal Activity johnsongrass", "setting": "[4]; 20 g/ha", "result": 4},
      {"measurement": "Herbicidal Activity johnsongrass", "setting": "[4]; 40 g/ha", "result": 5},
      {"measurement": "Herbicidal Activity johnsongrass", "setting": "[4]; 80 g/ha", "result": 5}
    ]},
    {"smiles": "C=CCOC(=O)[C@@H](C)Oc1cc(-n2c(=O)cc(C(F)(F)F)n(C)c2=O)c(F)cc1Cl", "note": "[Present Compound 3, allyl (2R)-2-[2-chloro-4-fluoro-5-[3-methyl-2,6-dioxo-4-(trifluoromethyl)-1,2,3,6-tetrahydropyrimidin-1-yl]phenoxy]propionate]", "values": [
      {"measurement": "Herbicidal Activity johnsongrass", "setting": "[5]; 16 g/ha", "result": 3},
      {"measurement": "Herbicidal Activity johnsongrass", "setting": "[5]; 32 g/ha", "result": 5},
      {"measurement": "Herbicidal Activity johnsongrass", "setting": "[5]; 63 g/ha", "result": 5}
    ]},
    {"smiles": "COC(=O)[C@@H](C)Oc1cc(-n2c(=O)cc(C(F)(F)F)n(C)c2=O)c(F)cc1Cl", "note": "[Present Compound 5, methyl (2R)-2-[2-chloro-4-fluoro-5-[3-methyl-2,6-dioxo-4-(trifluoromethyl)-1,2,3,6-tetrahydropyrimidin-1-yl]phenoxy]propionate]", "values": [
      {"measurement": "Herbicidal Activity johnsongrass", "setting": "[6]; 20 g/ha", "result": 4},
      {"measurement": "Herbicidal Activity johnsongrass", "setting": "[6]; 40 g/ha", "result": 5},
      {"measurement": "Herbicidal Activity johnsongrass", "setting": "[6]; 80 g/ha", "result": 5},
      {"measurement": "Herbicidal Activity johnsongrass", "setting": "[7]; 16 g/ha", "result": 4},
      {"measurement": "Herbicidal Activity johnsongrass", "setting": "[7]; 32 g/ha", "result": 5},
      {"measurement": "Herbicidal Activity johnsongrass", "setting": "[7]; 63 g/ha", "result": 5}
    ]}
  ]
}
